Test results reported in US10189816B2, “Substituted pyridines as inhibitors of human immunodeficiency virus replication” (priority 2015, dated 2019).
Where two headings read alike, the source gives them in different places.

Tested on: NL-RLuc virus
Assay: Inhibition of HIV replication (NL-RLuc reporter virus in MT-2 cells, luciferase readout)
Format: cell-based
From the text: Inhibition of HIV replication: A recombinant NL-RLuc proviral clone was constructed in which a section of the nef gene from NL4-3 was replaced with the Renilla Luciferase gene. This virus is fully infectious and can undergo multiple cycles of replication in cell culture. In addition, the luciferous reporter provides a simple and easy method for quantitating the extent of virus growth and consequently, the antiviral activity of test compounds. The plasmid pNLRLuc contains the proviral NL-Rluc DNA cloned into pUC18 at the PvuII site. The NL-RLuc virus was prepared by transfection of 293T cells with the plasmid pNLRLuc. Transfections were performed using the LipofectAMINE PLUS kit from Invitrogen (Carlsbad, Calif.) according to the manufacturer and the virus generated was titered in MT-2 cells. For susceptibility analyses, the titrated virus was used to infect MT-2 cells in the presence of compound, and after 5 days of incubation, cells were processed and quantitated for virus growth by the amount of expressed luciferase. Assay media was RPMI 1640 supplemented with 10% heat inactivated fetal bovine serum (FBS), 100 units/ml penicillin G/100 units/ml streptomycin, 10 mM HEPES buffer pH 7.55 and 2 mM L-glutamine. The results from at least 2 experiments were used to calculate the EC50 values. Luciferase was quantitated using the Dual Luciferase kit from Promega (Madison, Wis.). Susceptibility of viruses to compounds was determined by incubation in the presence of serial dilutions of the compound. The 50% effective concentration (EC50) was calculated by using the exponential form of the median effect equation where (Fa)=1/[1+(ED50/drug conc.)^m] (Johnson V A, Byington R T. Infectivity Assay. In Techniques in HIV Research. ed. Aldovini A, Walker B D. 71-76. New York: Stockton Press.1990). Activity equal to A refers to a compound having an EC50≤100 nM, while B and C denote compounds having an EC50 between 100 nM and 1 uM (B) or >1 uM (C).

[1] = Human immunodeficiency virus 1, MT2, 120 h, read-out: Activity
[2] = Human immunodeficiency virus 1, MT2, 120 h, read-out: EC50 μM

Cc1cccc(C)c1CN1CCc2cc(-c3c(C)nc(C)c([C@H](OC(C)(C)C)C(=O)O)c3N3CCC(C)(C)CC3)ccc2C1 [Compound 33, (S)-2-(tert-butoxy)-2-(5-(2-(2,6-dimethylbenzyl)-1,2,3,4-tetrahydroisoquinolin-6-yl)-4-(4,4-dimethylpiperidin-1-yl)-2,6-dimethylpyridin-3-yl)acetic acid] was tested, and the EC50 [1] was less than 0.1 µM.

For Cc1nc(C)c([C@H](OC(C)(C)C)C(=O)O)c(N2CCC(C)(C)CC2)c1-c1ccc2c(c1)CCN(Cc1cc(F)c(F)c(F)c1)C2 [Compound 34, (S)-2-(tert-butoxy)-2-(4-(4,4-dimethylpiperidin-1-yl)-2,6-dimethyl-5-(2-(3,4,5-trifluorobenzyl)-1,2,3,4-tetrahydroisoquinolin-6-yl)pyridin-3-yl)acetic acid], the EC50 [1] was less than 0.1 µM.

Cc1nc(C)c([C@H](OC(C)(C)C)C(=O)O)c(N2CCC(C)(C)CC2)c1-c1ccc2c(c1)CCN(Cc1ccc(F)cc1Cl)C2 [Compound 35, (S)-2-(tert-butoxy)-2-(5-(2-(2-chloro-4-fluorobenzyl)-1,2,3,4-tetrahydroisoquinolin-6-yl)-4-(4,4-dimethylpiperidin-1-yl)-2,6-dimethylpyridin-3-yl)acetic acid] was tested, and the EC50 [1] was less than 0.1 µM.

Work on Cc1nc(C)c([C@H](OC(C)(C)C)C(=O)O)c(N2CCC(C)(C)CC2)c1-c1ccc2c(c1)CCN(Cc1cccc(C(C)C)c1)C2 [Compound 36, (S)-2-(tert-butoxy)-2-(4-(4,4-dimethylpiperidin-1-yl)-5-(2-(3-isopropylbenzyl)-1,2,3,4-tetrahydroisoquinolin-6-yl)-2,6-dimethylpyridin-3-yl)acetic acid] yielded an EC50 [1] of less than 0.1 µM.

Work on Cc1nc(C)c([C@H](OC(C)(C)C)C(=O)O)c(N2CCC(C)(C)CC2)c1-c1ccc2c(c1)CCN(Cc1ccc(F)c(F)c1)C2 [Compound 37, (S)-2-(tert-butoxy)-2-(5-(2-(3,4-difluorobenzyl)-1,2,3,4-tetrahydroisoquinolin-6-yl)-4-(4,4-dimethylpiperidin-1-yl)-2,6-dimethylpyridin-3-yl)acetic acid] yielded an EC50 [1] of less than 0.1 µM.

Cc1nc(C)c([C@H](OC(C)(C)C)C(=O)O)c(N2CCC(C)(C)CC2)c1-c1ccc2c(c1)CCN(Cc1cc(F)ccc1F)C2 [Compound 38, (S)-2-(tert-butoxy)-2-(5-(2-(2,5-difluorobenzyl)-1,2,3,4-tetrahydroisoquinolin-6-yl)-4-(4,4-dimethylpiperidin-1-yl)-2,6-dimethylpyridin-3-yl)acetic acid] gave an EC50 [1] of less than 0.1 µM and an EC50 [2] of 0.006 µM.

For Cc1nc(C)c([C@H](OC(C)(C)C)C(=O)O)c(N2CCC(C)(C)CC2)c1-c1ccc2c(c1)CCN(Cc1ccc(Cl)cc1F)C2 [Compound 39, (S)-2-(tert-butoxy)-2-(5-(2-(4-chloro-2-fluorobenzyl)-1,2,3,4-tetrahydroisoquinolin-6-yl)-4-(4,4-dimethylpiperidin-1-yl)-2,6-dimethylpyridin-3-yl)acetic acid], the EC50 [1] was less than 0.1 µM.

Cc1nc(C)c([C@H](OC(C)(C)C)C(=O)O)c(N2CCC(C)(C)CC2)c1-c1ccc2c(c1)CCN(Cc1cccc(Cl)c1Cl)C2 [Compound 40, (S)-2-(tert-butoxy)-2-(5-(2-(2,3-dichlorobenzyl)-1,2,3,4-tetrahydroisoquinolin-6-yl)-4-(4,4-dimethylpiperidin-1-yl)-2,6-dimethylpyridin-3-yl)acetic acid] gave an EC50 [1] of less than 0.1 µM.

For Cc1nc(C)c([C@H](OC(C)(C)C)C(=O)O)c(N2CCC(C)(C)CC2)c1-c1ccc2c(c1)CCN(Cc1ccc(F)c(F)c1F)C2 [Compound 41, (S)-2-(tert-butoxy)-2-(4-(4,4-dimethylpiperidin-1-yl)-2,6-dimethyl-5-(2-(2,3,4-trifluorobenzyl)-1,2,3,4-tetrahydroisoquinolin-6-yl)pyridin-3-yl)acetic acid], the EC50 [1] was less than 0.1 µM.

In the case of Cc1nc(C)c([C@H](OC(C)(C)C)C(=O)O)c(N2CCC(C)(C)CC2)c1-c1ccc2c(c1)CCN(Cc1cc(Cl)ccc1F)C2 [Compound 42, (S)-2-(tert-butoxy)-2-(5-(2-(5-chloro-2-fluorobenzyl)-1,2,3,4-tetrahydroisoquinolin-6-yl)-4-(4,4-dimethylpiperidin-1-yl)-2,6-dimethylpyridin-3-yl)acetic acid], the EC50 [1] is reported as less than 0.1 µM.

Work on Cc1nc(C)c([C@H](OC(C)(C)C)C(=O)O)c(N2CCC(C)(C)CC2)c1-c1ccc2c(c1)CCN(Cc1cc(F)cc(Cl)c1)C2 [Compound 43, (S)-2-(tert-butoxy)-2-(5-(2-(3-chloro-5-fluorobenzyl)-1,2,3,4-tetrahydroisoquinolin-6-yl)-4-(4,4-dimethylpiperidin-1-yl)-2,6-dimethylpyridin-3-yl)acetic acid] yielded an EC50 [1] of less than 0.1 µM.

Cc1nc(C)c([C@H](OC(C)(C)C)C(=O)O)c(N2CCC(C)(C)CC2)c1-c1ccc2c(c1)CCN(Cc1c(F)ccc(F)c1F)C2 [Compound 44, (S)-2-(tert-butoxy)-2-(4-(4,4-dimethylpiperidin-1-yl)-2,6-dimethyl-5-(2-(2,3,6-trifluorobenzyl)-1,2,3,4-tetrahydroisoquinolin-6-yl)pyridin-3-yl)acetic acid] was tested, and the EC50 [1] was less than 0.1 µM.

Cc1nc(C)c([C@H](OC(C)(C)C)C(=O)O)c(N2CCC(C)(C)CC2)c1-c1ccc2c(c1)CCN(Cc1cc(F)ccc1Cl)C2 [Compound 45, (S)-2-(tert-butoxy)-2-(5-(2-(2-chloro-5-fluorobenzyl)-1,2,3,4-tetrahydroisoquinolin-6-yl)-4-(4,4-dimethylpiperidin-1-yl)-2,6-dimethylpyridin-3-yl)acetic acid] gave an EC50 [1] of less than 0.1 µM and an EC50 [2] of 0.003 µM.

Cc1cc(F)cc(CN2CCc3cc(-c4c(C)nc(C)c([C@H](OC(C)(C)C)C(=O)O)c4N4CCC(C)(C)CC4)ccc3C2)c1 [Compound 46, (S)-2-(tert-butoxy)-2-(4-(4,4-dimethylpiperidin-1-yl)-5-(2-(3-fluoro-5-methylbenzyl)-1,2,3,4-tetrahydroisoquinolin-6-yl)-2,6-dimethylpyridin-3-yl)acetic acid] was tested, and the EC50 [1] was less than 0.1 µM.

For Cc1ccc(F)cc1CN1CCc2cc(-c3c(C)nc(C)c([C@H](OC(C)(C)C)C(=O)O)c3N3CCC(C)(C)CC3)ccc2C1 [Compound 47, (S)-2-(tert-butoxy)-2-(4-(4,4-dimethylpiperidin-1-yl)-5-(2-(5-fluoro-2-methylbenzyl)-1,2,3,4-tetrahydroisoquinolin-6-yl)-2,6-dimethylpyridin-3-yl)acetic acid], the EC50 [1] was less than 0.1 µM.

With Cc1ccc(F)c(CN2CCc3cc(-c4c(C)nc(C)c([C@H](OC(C)(C)C)C(=O)O)c4N4CCC(C)(C)CC4)ccc3C2)c1F [Compound 48, (S)-2-(tert-butoxy)-2-(5-(2-(2,6-difluoro-3-methylbenzyl)-1,2,3,4-tetrahydroisoquinolin-6-yl)-4-(4,4-dimethylpiperidin-1-yl)-2,6-dimethylpyridin-3-yl)acetic acid] the EC50 [1] was less than 0.1 µM.

In the case of Cc1nc(C)c([C@H](OC(C)(C)C)C(=O)O)c(N2CCC(C)(C)CC2)c1-c1ccc2c(c1)CCN(Cc1cc(F)c(F)cc1F)C2 [Compound 49, (S)-2-(tert-butoxy)-2-(4-(4,4-dimethylpiperidin-1-yl)-2,6-dimethyl-5-(2-(2,4,5-trifluorobenzyl)-1,2,3,4-tetrahydroisoquinolin-6-yl)pyridin-3-yl)acetic acid], the EC50 [1] is reported as less than 0.1 µM.

For Cc1nc(C)c([C@H](OC(C)(C)C)C(=O)O)c(N2CCC(C)(C)CC2)c1-c1ccc2c(c1)CCN(Cc1c(F)cccc1F)C2 [Compound 50, (S)-2-(tert-butoxy)-2-(5-(2-(2,6-difluorobenzyl)-1,2,3,4-tetrahydroisoquinolin-6-yl)-4-(4,4-dimethylpiperidin-1-yl)-2,6-dimethylpyridin-3-yl)acetic acid], the EC50 [1] was less than 0.1 µM.

In the case of Cc1cccc(F)c1CN1CCc2cc(-c3c(C)nc(C)c([C@H](OC(C)(C)C)C(=O)O)c3N3CCC(C)(C)CC3)ccc2C1 [Compound 51, (S)-2-(tert-butoxy)-2-(4-(4,4-dimethylpiperidin-1-yl)-5-(2-(2-fluoro-6-methylbenzyl)-1,2,3,4-tetrahydroisoquinolin-6-yl)-2,6-dimethylpyridin-3-yl)acetic acid], the EC50 [1] is reported as less than 0.1 µM and the EC50 [2] is reported as 0.003 µM.

With Cc1ccc(C(F)(F)F)cc1CN1CCc2cc(-c3c(C)nc(C)c([C@H](OC(C)(C)C)C(=O)O)c3N3CCC(C)(C)CC3)ccc2C1 [Compound 52, (S)-2-(tert-butoxy)-2-(4-(4,4-dimethylpiperidin-1-yl)-2,6-dimethyl-5-(2-(2-methyl-5-(trifluoromethyl)benzyl)-1,2,3,4-tetrahydroisoquinolin-6-yl)pyridin-3-yl)acetic acid] the EC50 (NL-RLuc virus in MT-2 cells, 5 days of incubation, luciferase, at least 2 experiments, read-out: Activity) was less than 0.1 µM.

For Cc1nc(C)c([C@H](OC(C)(C)C)C(=O)O)c(N2CCC(C)(C)CC2)c1-c1ccc2c(c1)CCN(Cc1ccc(Cl)cc1Cl)C2 [Compound 53, (S)-2-(tert-butoxy)-2-(5-(2-(2,4-dichlorobenzyl)-1,2,3,4-tetrahydroisoquinolin-6-yl)-4-(4,4-dimethylpiperidin-1-yl)-2,6-dimethylpyridin-3-yl)acetic acid], the EC50 [1] was less than 0.1 µM.
